Experimental data published in ChEMBL document CHEMBL1121838, “Synthesis and anticholinergic properties of the enantiomers of 4-(isopropylamino)-2-(2-pyridyl)-2-phenylbutyramide, the mono-N-dealkylated metabolite of disopyramide” (J Med Chem, 1981).

Legend:
[1] = species on record: Cavia porcellus; experiment: Inhibitory concentration of guinea pig ileum longitudinal muscle produced in response to electrically simulated release of acetylcholine; format: functional, Muscle tissue
[2] = species on record: Cavia porcellus; experiment: Mean dissociation constant was measured for acetylcholine-induced contractions; format: functional
[3] = species on record: Cavia porcellus; experiment: Inhibitory concentration of guinea pig ileum longitudinal muscle strips to antagonize electrically stimulated contractions; format: functional; conditions: Muscle tissue

CC(C)NCC[C@@](C(N)=O)(c1ccccc1)c1ccccn1 (stereo in doubt; 2 (2R)) gave an IC50 [1] of 14 µM.
CC(C)NCC[C@@](C(N)=O)(c1ccccc1)c1ccccn1 (stereo in doubt; 2 (2S)) gave an IC50 [1] of 5 µM.
CC(C)N(CC[C@](C(N)=O)(c1ccccc1)c1ccccn1)C(C)C [(S)-DISOPYRAMIDE] gave an IC50 ([1]; Cavia porcellus, Muscle tissue) of 4.5 µM.
CC(C)N(CCC(C(N)=O)(c1ccccc1)c1ccccn1)C(C)C (configuration not stated) [DISOPYRAMIDE] was tested, and the Kd [2] was 2.2 µM and the IC50 [3] was 1.5 µM.
CC(C)NCCC(C(N)=O)(c1ccccc1)c1ccccn1 (configuration not stated) [N-MONODEISOPROPYL DISOPYRAMIDE] gave a Kd [2] of 3.8 µM and an IC50 [3] of 3.2 µM.
